Paper PMC3723878 (PLoS ONE, 2013)
Residue numbers refer to the chain shown, from its start.

Tests used:
α1A-AR [1] = target: T1, α1A-AR (Homo sapiens, UniProt P35348); assay: Intracellular Ca^2+ release in CHO-K1 cells expressing the α1A-AR; assay type: cell-based; design: expressed in transfected cells; conditions: for Emax: CHO-K1, read-out: Emax, Ca^2+ release
T1 sequence (P35348 1-466): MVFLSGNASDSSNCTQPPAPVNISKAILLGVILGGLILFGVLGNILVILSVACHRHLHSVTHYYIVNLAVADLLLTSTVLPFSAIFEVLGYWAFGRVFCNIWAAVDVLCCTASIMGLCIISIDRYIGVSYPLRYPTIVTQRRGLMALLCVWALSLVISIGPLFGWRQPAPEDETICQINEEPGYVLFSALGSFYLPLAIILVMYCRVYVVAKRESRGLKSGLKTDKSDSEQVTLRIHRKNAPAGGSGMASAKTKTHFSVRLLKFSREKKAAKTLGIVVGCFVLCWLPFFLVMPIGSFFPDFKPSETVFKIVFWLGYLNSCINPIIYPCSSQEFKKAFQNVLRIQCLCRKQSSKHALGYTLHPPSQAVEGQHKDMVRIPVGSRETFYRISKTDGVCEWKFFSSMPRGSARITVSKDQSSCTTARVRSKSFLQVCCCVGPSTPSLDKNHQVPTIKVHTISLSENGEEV
Protocol: (§1) CHO cells stably expressing α1-ARs were kindly provided by Dr. Hervé Paris (INSERM U858, Toulouse, France) and were grown in a 50∶50 Dulbecco's Modified Eagle's Medium (DMEM)/Ham's F12 medium supplemented with 10% (v/v) foetal bovine serum (FBS), glutamine (2 mM), penicillin (100 units/ml) and streptomycin (100 µg/ml) at 37°C with 5% CO2. COS-7 cells were grown at 37°C under 5% CO2 in Dulbecco's modified Eagle's medium containing 10% fetal calf serum, 1% penicillin and 1% glutamine (Sigma-Aldrich, St Quentin-Fallavier, France). At 80% confluence, the cells were transfected using a calcium phosphate precipitation method for transient expression of the genetic construct. After 48 h incubation at 37°C, cells were harvested and the membranes were prepared as follow. Cells were washed with ice-cold phosphate buffer and centrifuged at 1700 g for 10 min (4°C). The pellet was suspended in ice-cold buffer (1 mM EDTA, 25 mM sodium phosphate, and 5 mM MgCl2, pH 7.4) and homogenized using an Potter-Elvehjem homogenizer (Fisher Scientific Labosi, Elancourt, France). The homogenate was centrifuged at 1700 g for 15 min (4°C). The sediment was resuspended in buffer, homogenized, and centrifuged at 1700 g for 15 min (4°C). The combined supernatants were centrifuged at 35,000 g for 30 min (4°C), and the pellet was suspended in the same buffer (0.1 ml/dish). […] Cells were grown in a 50∶50 Dulbecco's Modified Eagle's Medium (DMEM)/Ham's F12 medium supplemented with 10% (v/v) foetal bovine serum (FBS), glutamine (2 mM), penicillin (100 units/ml) and streptomycin (100 µg/ml) at 37°C with 5% CO2. Media was changed every 2–3 days and cells were passaged when confluent with 0.05% trypsin and 0.02% EDTA.
All experiments were performed in duplicate.

human α1A-AR WT = target: T2, human α1A-AR WT (Homo sapiens, UniProt P35348); assay: Competition binding with ^125I-HEAT, wild type receptor
T2 construct: expressed in transfected cells; host or cells: COS-7, transient (calcium phosphate)
T2 sequence (P35348 1-466): T1 sequence (P35348 1-466)
Protocol: as §1
(§2) Binding experiments were performed in a 100 µL reaction mix at room temperature in buffer composed of 50 mM Tris-HCl, pH 7.4, 10 mM MgCl2, 1 g/L BSA. Reactions were stopped by filtration through 96 GF/C filter plates pre-incubated with 0.5% polyethylenimine.
(§3) Binding data were analyzed by nonlinear regression using the KaleidaGraph 4.0 software (Synergy software, Reading, PA). pKD values and Bmax (number of binding sites) were determined by applying a nonlinear regression to data obtained with saturation binding assays. […] Data resulting from competition binding assays were analyzed using the Hill equation for IC50 and curve slope estimations. […] The linear curves were analyzed with IC50 = Ki+(L/KD)*Ki. Dissociation kinetics were analyzed using a simple equation of exponential decay BS * exp (-Koff*t), where BS is the specific binding at time zero and Koff is the dissociation rate constant. Results are expressed as mean ± s.e. mean from n independent experiments. […]

[2] = target: T3, human α1A-AR F187A variant (Homo sapiens, UniProt P35348, F187A); assay: Saturation binding of ^125I-HEAT; conditions: F187A variant relative to wild type
T3 construct: expressed in transfected cells; host or cells: COS-7, transient (calcium phosphate)
T3 sequence (P35348 1-466 F187A): T1 sequence (P35348 1-466) with F187A
Description: (§4) α1A-AR cDNA inserted in the prK5 vector was kindly provided by Michael Brownstein (Craig Venter Institute, Rockville, MD). Point mutations were introduced into the α1A-AR gene by sense and antisense primers (Sigma-Aldrich, St Quentin-Fallavier, France) containing the desired changes, using the QuikChange Site-Directed Mutagenesis kit. The incorporation of each mutation was verified by DNA sequencing.
as §1, §2
Binding data were analyzed by nonlinear regression using the KaleidaGraph 4.0 software (Synergy software, Reading, PA). pKD values and Bmax (number of binding sites) were determined by applying a nonlinear regression to data obtained with saturation binding assays. The nonlinear regression used was BS = (Bmax*A)/KD+A, where BS is the specific binding, Bmax the number of binding sites, A the concentration of radioligand, and KD the dissociation constant of the radioligand. Data resulting from competition binding assays were analyzed using the Hill equation for IC50 and curve slope estimations. […] The linear curves were analyzed with IC50 = Ki+(L/KD)*Ki. Dissociation kinetics were analyzed using a simple equation of exponential decay BS * exp (-Koff*t), where BS is the specific binding at time zero and Koff is the dissociation rate constant. Results are expressed as mean ± s.e. mean from n independent experiments. One-way Anova test was used to compare values. A p<0.05 was accepted for statistical significance.

[3] = target: T4, human α1A-AR D106A variant (Homo sapiens, UniProt P35348, D106A); assay: Competition binding with ^125I-HEAT
T4 construct: expressed in transfected cells; host or cells: COS-7, transient (calcium phosphate)
T4 sequence (P35348 1-466 D106A): T1 sequence (P35348 1-466) with D106A
Description: as §4
as §1, with “Media was changed every 2–3 days and cells were passaged when confluent with 0.05% trypsin and 0.02% EDTA.” left out
as §3

[4] = target: T5, human α1A-AR F86A variant (Homo sapiens, UniProt P35348, F86A); assay: Competition binding with ^125I-HEAT
T5 construct: expressed in transfected cells; host or cells: COS-7, transient (calcium phosphate)
T5 sequence (P35348 1-466 F86A): T1 sequence (P35348 1-466) with F86A
Description: as §4
as §1, with “Media was changed every 2–3 days and cells were passaged when confluent with 0.05% trypsin and 0.02% EDTA.” left out
as §3

α1A-AR [5] = target: T1, α1A-AR; assay: Competition binding with ^3H-prazosin; design: expressed in transfected cells; conditions: inhibition of ^3H-prazosin 2 nM
Protocol: CHO cells stably expressing α1-ARs were kindly provided by Dr. Hervé Paris (INSERM U858, Toulouse, France) and were grown in a 50∶50 Dulbecco's Modified Eagle's Medium (DMEM)/Ham's F12 medium supplemented with 10% (v/v) foetal bovine serum (FBS), glutamine (2 mM), penicillin (100 units/ml) and streptomycin (100 µg/ml) at 37°C with 5% CO2. COS-7 cells were grown at 37°C under 5% CO2 in Dulbecco's modified Eagle's medium containing 10% fetal calf serum, 1% penicillin and 1% glutamine (Sigma-Aldrich, St Quentin-Fallavier, France). At 80% confluence, the cells were transfected using a calcium phosphate precipitation method for transient expression of the genetic construct. […]
as §3

α1A-AR [6] = tested on: α1A-AR; design: method as in PMID 20015090; conditions: cited from earlier work
α1B-AR = target: α1B-AR; design: method as in PMID 20015090; conditions: α1B-AR expressed in yeast; read-out: affinity; cited from earlier work
α1D-AR = target: α1D-AR; design: method as in PMID 20015090; conditions: α1D-AR expressed in yeast; read-out: affinity; cited from earlier work
[7] = linear fit of ρ-Da1a IC50 against ^125I-HEAT concentration

Compound: CS(=O)(=O)Nc1c(O)ccc2c1CCCC2C1=NCCN1 (stereo not shown) [A61603]
- Emax, Ca^2+ release (α1A-AR [1]; CHO-K1 cells expressing the α1A-AR, agonist alone, A23187 1 µM): 75.5±1.3 percentage of peak A23187 response

Compound: O=C1c2ccccc2CCC1CNCCc1ccc(O)cc1 (stereo not shown) [HEAT]
- Ratio (Ki relative to WT) (human α1A-AR WT; WT): 1
- pKi (human α1A-AR WT; WT, competition with ^125I-HEAT 200 pM): 9.57±0.08
- Kd (human α1A-AR WT; [7]): 0.0435 nM
- pKd (human α1A-AR WT; [7]): 10.36
- increase in HEAT affinity [2]: 4.5 fold
- Ratio (reduction of affinity relative to WT) [3]: 0.67
- pKi ([3]; competition with ^125I-HEAT 200 pM): 9.74±0.12
- Ratio (reduction of affinity relative to WT) [4]: 23 ^*
- pKi ([4]; competition with ^125I-HEAT […]): 8.21±0.09
- Hill slope (α1A-AR [5]): 0.85
- pKi (α1A-AR [5]; n = 3): 9.66±0.08 nM

Compound: NC[C@H](O)c1ccc(O)c(O)c1 [noradrenaline]
- Emax (α1A-AR [1]): 77.8 ± 1.5%

Compound: Cc1cc(C(C)(C)C)c(O)c(C)c1CC1=NCCN1 [oxymetazoline]
- Emax (α1A-AR [1]): 60.8 ± 1.3%

Compound: CNC[C@H](O)c1cccc(O)c1 [phenylephrine]
- Emax (α1A-AR [1]): 64.8 ± 2.4%

Compound: ρ-Da1a
- displacement of ^3H-prazosin binding (α1A-AR [6]; yeast membranes expressing the α1A-AR): 85%
- Ki (α1A-AR [6]; α1A-AR expressed in yeast, read-out: affinity): 0.35 nM
- Ki (α1B-AR): 317 nM
- Ki (α1D-AR): 420 nM
